Data on 28 compounds can be found in PubChem BioAssay AID1259408 (Genetic Toxicology Data Bank (GENE-TOX), 2018).

The series concerns GENE-TOX genotoxicity assays, various organisms and cells. Briefly: GENE-TOX mutagenicity studies. The note with it: for call: Assay Type: In vivo carcinogenicity studies.
The mark [1] stands for this setting: Species/Cell Type: Drosophila melanogaster, Assay Type: Sex-linked recessive lethal gene mutation, Assay Code: SRL+, Evaluation Type: Evaluation A (Pre-1980).
The mark [2] stands for this setting: Species/Cell Type: Nonhuman, Assay Code: CCG+, Evaluation Type: Evaluation A (Pre-1980).
[3] abbreviates: Species/Cell Type: Salmonella typhimurium (one or more of the five standard strains: TA98, TA100, TA1535, TA1537, and TA1538), Assay Type: Histidine reverse gene mutation, Ames assay, Assay Code: SAL+*, Activation: With metabolic activation, Evaluation Type: Evaluation A (Pre-1980).
Where [4] appears, read: Species/Cell Type: Salmonella typhimurium (one or more of the five standard strains: TA98, TA100, TA1535, TA1537, and TA1538), Assay Type: Histidine reverse gene mutation, Ames assay, Assay Code: SALT, Evaluation Type: Evaluation A (Pre-1980).
The mark [5] stands for this setting: Species/Cell Type: Chinese hamster ovary (CHO) cells, Assay Type: Forward gene mutation at the HPRT locus, Assay Code: CHO+, Evaluation Type: Evaluation B (Post-1980).
Setting [6] is: Species/Cell Type: Mammalian polychromatic erythrocytes, Assay Type: Micronucleus test, chromosome aberrations, Assay Code: MNT+, Evaluation Type: Evaluation B (Post-1980).
Setting [7] is: Species/Cell Type: Nonhuman, Assay Type: Sister-chromatid exchange (SCE) in vivo, Assay Code: SC3+D, Dose Response: With dose response, Evaluation Type: Evaluation B (Post-1980).
[8] abbreviates: Species/Cell Type: Nonhuman, Assay Type: Sister-chromatid exchange (SCE) in vitro, Assay Code: SC2+D, Dose Response: With dose response, Evaluation Type: Evaluation B (Post-1980).
Setting [9] is: Species/Cell Type: Human, Assay Type: Sister-chromatid exchange (SCE) in vitro, Assay Code: SC1T, Evaluation Type: Evaluation B (Post-1980).

Calls of active or inactive are those of the source. No rule for the calls is given here.

With `Cc1ccc(N)cc1N`, the mutagenic call was “active; positive” under setting [1]; “inactive; negative” (Species/Cell Type: Mouse, Sex: Male, Assay Type: Sperm morphology, Assay Code: SPI-, Evaluation Type: Evaluation A (Pre-1980)); “inactive; negative” (Species/Cell Type: Neurospora crassa, Assay Type: Aneuploidy, chromosome aberrations, Assay Code: NEN-, Evaluation Type: Evaluation A (Pre-1980)); “active; positive” (Species/Cell Type: Nonhuman, Assay Type: Sister-chromatid exchange (SCE) in vivo, Assay Code: SC3+, Evaluation Type: Evaluation B (Post-1980)); “active; positive” under setting [3]; “no conclusion” (Species/Cell Type: Syrian hamster embryo (SHE) cells, Assay Type: Cell transformation, clonal assay, Assay Code: CTCT, Evaluation Type: Evaluation A (Pre-1980)). Further, under setting [2], the call is “active; positive”.

Regarding `C[C@H]1c2cccc(O)c2C(O)=C2C(=O)[C@]3(O)C(O)=C(C(N)=O)C(=O)[C@@H](N(C)C)[C@@H]3[C@@H](O)[C@@H]21`, the mutagenic call (Species/Cell Type: Human, Sex: Male, Assay Type: Sperm morphology, Assay Code: SPHT, Evaluation Type: Evaluation A (Pre-1980)) is reported as “no conclusion”.

As to `O=NN1CCC(O)C1` (stereo not drawn), the mutagenic call (Species/Cell Type: Salmonella typhimurium (one or more of the five standard strains: TA98, TA100, TA1535, TA1537, and TA1538), Assay Type: Histidine reverse gene mutation, Ames assay, Assay Code: SAL+, Evaluation Type: Evaluation A (Pre-1980)) is “active; positive”.

With `COc1ccc2c3c4n(c2c1)[C@@H](C=C(C)C)OOC(C)(C)C[C@@H]4N1C(=O)[C@@H]2CCCN2C(=O)[C@]1(O)[C@H]3O`, the mutagenic call is, setting by setting: (Species/Cell Type: Saccharomyces cerevisiae, Assay Type: Mitotic recombination or gene conversion, Assay Code: YEH-, Evaluation Type: Evaluation A (Pre-1980)) “inactive; negative”; under setting [4], “no conclusion”.

Take `CNc1nc2c(c(=O)n(C)c(=O)n2C)n1C`: under “Species/Cell Type: Allium cepa, Assay Type: Chromosome aberrations, Assay Code: ALC+, Evaluation Type: Evaluation A (Pre-1980)”, the mutagenic call was “active; positive”.

On to `COc1cc(NO)ccc1N=Nc1ccccc1`, for which the mutagenic call under setting [4] is on record as “no conclusion”.

Consider `COc1cc(O)ccc1O`, for which the mutagenic call (Species/Cell Type: Allium cepa, Assay Type: Chromosome aberrations, Assay Code: ALCT, Evaluation Type: Evaluation A (Pre-1980)) is “no conclusion”.

Take `CCN(CCCl)CCCNc1c2ccc(Cl)cc2nc2ccc(OC)nc12`: the mutagenic call under setting [5] is “active; positive”.

With `CCN(CC)C(=O)/C(Cl)=C(\C)OP(=O)(OC)OC`, the mutagenic call is “active; positive” (Species/Cell Type: Hordeum vulgare (barley), Assay Type: Chromosome aberrations, Assay Code: HOC+D, Dose Response: With dose response, Evaluation Type: Evaluation A (Pre-1980)); “active; positive” under setting [6]; “active; positive” (Species/Cell Type: Vicia faba, Assay Type: Chromosome aberrations, Assay Code: VIC+, Evaluation Type: Evaluation A (Pre-1980)).

On to `NCCC[C@H](N)C(=O)O`, for which the mutagenic call (Species/Cell Type: Human, Sex: Male, Assay Type: Sperm morphology, Assay Code: SPH-, Evaluation Type: Evaluation A (Pre-1980)) is “inactive; negative”.

As for `C=Cc1ccccc1`, the mutagenic call was “inactive; negative” (Species/Cell Type: Chinese hamster lung (V79) cells, Assay Type: Forward gene mutation at the HPRT or ouabain locus, Assay Code: V79-, Evaluation Type: Evaluation A (Pre-1980)); “active; positive” under setting [1]; “inactive; negative” (Species/Cell Type: Human diploid fibroblasts, Assay Type: Unscheduled DNA synthesis (UDS) in vitro, DNA effects, Assay Code: UDH-*, Activation: With metabolic activation, Evaluation Type: Evaluation A (Pre-1980)); “active; positive” (Species/Cell Type: Human lymphocytes or leukocytes, Assay Type: Chromosome aberrations in vivo, Assay Code: CY8+, Evaluation Type: Evaluation A (Pre-1980)); “active; positive” (Species/Cell Type: Human lymphocytes, Assay Type: Micronucleus test in vitro, chromosome aberrations, Assay Code: MN7+, Evaluation Type: Evaluation A (Pre-1980)); “active; positive” (Species/Cell Type: Human lymphocytes, Assay Type: Sister-chromatid exchange (SCE) in vitro, Assay Code: SCL+D, Dose Response: With dose response, Evaluation Type: Evaluation B (Post-1980)). For the same compound, the mutagenic call reads like this: (Species/Cell Type: Human lymphocytes, Assay Type: Sister-chromatid exchange (SCE) in vivo, Assay Code: SCY+, Evaluation Type: Evaluation B (Post-1980)) “active; positive”; (Species/Cell Type: Human, Assay Type: Sister-chromatid exchange (SCE) in vitro, Assay Code: SC1+D, Dose Response: With dose response, Evaluation Type: Evaluation B (Post-1980)) “active; positive”; under setting [6], “active; positive”; under setting [7], “active; positive”; (Species/Cell Type: Plant, Assay Type: Micronucleus test, chromosome aberrations, Assay Code: MNP+, Evaluation Type: Evaluation A (Pre-1980)) “active; positive”; (Species/Cell Type: Saccharomyces cerevisiae, Assay Type: Forward and reverse gene mutation, mitotic recombination and gene conversion, host-mediated assay, Assay Code: HME+, Evaluation Type: Evaluation A (Pre-1980)) “active; positive”. Also, the mutagenic call runs as follows: (Species/Cell Type: Saccharomyces cerevisiae, Assay Type: Mitotic recombination or gene conversion, Assay Code: YEC+*, Activation: With metabolic activation, Evaluation Type: Evaluation A (Pre-1980)) “active; positive”; under setting [3], “active; positive”; (Species/Cell Type: Schizosaccharomyces pombe, Assay Type: Forward gene mutation, Assay Code: YEYT, Evaluation Type: Evaluation A (Pre-1980)) “no conclusion”; (Species/Cell Type: Syrian hamster embryo (SA7/SHE) cells, Assay Type: Cell transformation, viral enhanced, Assay Code: CT7-, Evaluation Type: Evaluation A (Pre-1980)) “inactive; negative”. Also, for the setting “Species/Cell Type: Nonhuman, Assay Code: CCG+L, Evaluation Type: Evaluation A (Pre-1980)”, the call was “active; positive”.

Take `O=c1[nH]c2ccccc2n1CCCN1CCC(n2c(=O)[nH]c3cc(Cl)ccc32)CC1`: the mutagenic call (Species/Cell Type: Mammalian polychromatic erythrocytes, Assay Type: Micronucleus test, chromosome aberrations, Assay Code: MNT+U, Dose Response: Unconfirmed positive response, Evaluation Type: Evaluation B (Post-1980)) is “active; positive”.

Take `O=C1c2cc(O)cc(O)c2C(=O)c2c1cc1c(c2O)[C@@H]2C=CO[C@@H]2O1`: under setting [3], the mutagenic call was “active; positive”.

With `CCC(=O)O[C@H]1CC[C@H]2[C@@H]3CCC4=CC(=O)CC[C@]4(C)[C@H]3CC[C@]12C`, under “Species/Cell Type: Human, Sex: Male, Assay Type: Sperm morphology, Assay Code: SPH+, Evaluation Type: Evaluation A (Pre-1980)”, the mutagenic call was “active; positive”. Also, under setting [2], the call was “active; positive”.

Turning to `c1cc2ccc3cc4cccc5ccc6cc(c1)c2c3c6c54`, the mutagenic call under setting [3] is “active; positive”.

As for `CS(=O)(=O)OC[C@H](O)[C@@H]1CO1`, for the setting “Species/Cell Type: Allium cepa, Assay Type: Chromosome aberrations, Assay Code: ALC+D, Dose Response: With dose response, Evaluation Type: Evaluation A (Pre-1980)”, the mutagenic call was “active; positive”.

Take `Nc1cccc2c1-c1ccccc1C2`: the mutagenic call was “inactive; negative” (Species/Cell Type: Fischer rat embryo (RLV/1706) cells, Assay Type: Cell transformation, viral enhanced, Assay Code: CTR-, Evaluation Type: Evaluation A (Pre-1980)) and “inactive; negative” (Species/Cell Type: Mouse embryo (AKR/ME) cells, Assay Type: Cell transformation, Assay Code: CTK-, Evaluation Type: Evaluation A (Pre-1980)).

`O=[N+]([O-])c1ccc(/C=C/c2nccn2Cc2ccccc2)o1`: the mutagenic call (Species/Cell Type: Neurospora crassa, Assay Type: Reverse gene mutation, Assay Code: NER+, Evaluation Type: Evaluation A (Pre-1980)) is “active; positive”.

For the compound `OCn1cnc2ccccc21`, where the note is “Species/Cell Type: Arabidopsis species, Assay Type: Gene mutation, Assay Code: ARM-, Evaluation Type: Evaluation A (Pre-1980)”, the mutagenic call was “inactive; negative”.

In the case of `O=c1[nH]c(=O)n([C@H]2C[C@H](O)[C@@H](CO)O2)cc1Cl`, the mutagenic call is “active; positive” under setting [5] and “active; positive” under setting [8].

For the compound `CCc1cc(C(N)=S)ccn1`, the mutagenic call under setting [9] was “no conclusion”.

For the compound `Cc1c2ccccc2cc2c3c(ccc12)C=CC(O)C3O` (stereo not drawn), under setting [3], the mutagenic call was “active; positive”.

Regarding `CCC(Cc1c(I)cc(I)c(N)c1I)C(=O)O` (stereo not drawn), the mutagenic call (Species/Cell Type: Human lymphocytes, Assay Type: Sister-chromatid exchange (SCE) in vitro, Assay Code: SCLT, Evaluation Type: Evaluation B (Post-1980)) is given as “no conclusion” and the mutagenic call under setting [9] is reported as “no conclusion”.

Take `C=CCOC(N)=O`: the mutagenic call under setting [7] is “active; positive”.

For `C/C(O)=C1/C(=O)[C@@H]2[C@H]3c4c[nH]c5cccc(c45)C[C@H]3C(C)(C)N2C1=O`, the mutagenic call under setting [4] is on record as “no conclusion”.

Turning to `O=CCCCC=O`, the mutagenic call reads like this: (Species/Cell Type: Chinese hamster ovary (CHO) cells, Assay Type: Forward gene mutation at the HPRT locus, Assay Code: CHO-, Evaluation Type: Evaluation B (Post-1980)) “inactive; negative”; under setting [8], “active; positive”.

Take `O.O.O.O.O.[Cd+2].[Cd+2].[Cl-].[Cl-].[Cl-].[Cl-]`: for the setting “Species/Cell Type: Nonhuman, Assay Type: Sister-chromatid exchange (SCE) in vitro, Assay Code: SC2+, Evaluation Type: Evaluation B (Post-1980)”, the mutagenic call was “active; positive”.

On to `Cc1ccc(N2CCN(C)CC2)c2c(=O)c3ccc(Cl)cc3sc12`, for which the mutagenic call under setting [4] was “no conclusion”.
